Literature values in US7586020B2, “Methods for determining effects of maternal treatments on offspring” (priority 1998, dated 2009).

System: (YS×VY)FI female mice
Settings: between about 17 and 24 months of age

Cl[C@H]1[C@H](Cl)[C@@H](Cl)[C@@H](Cl)[C@H](Cl)[C@H]1Cl [lindane]
mortality, lindane-treated versus untreated control mice: no differences in mortality
